{"source": "patent US8258114B2", "about": "“Modulation of glucose-6-phosphatase translocase expression” (Isis Pharmaceuticals, Inc., priority 2004, dated 2012)", "note": "Oligonucleotides are written 5' to 3', each unit as a sugar letter and its base; * is a phosphorothioate linkage, no mark a phosphodiester; rarer units and linkages stand in square brackets, end groups in braces. Plain capitals give the bases only. e = 2'-O-(2-methoxyethyl) (MOE); [5mC] = 5-methylcytosine; d = 2'-deoxy (DNA)", "data": [{"tested_on": "human glucose-6-phosphatase translocase mRNA", "experiment": "Antisense inhibition of human glucose-6-phosphatase translocase mRNA in HepG2 cells (Table 11)", "assay_type": "cell-based", "parameters": "concentration or dose not given beside the values", "conditions": "LIPOFECTIN, mRNA by real-time PCR", "description": "The human hepatoblastoma cell line HepG2 was obtained from the American Type Culture Collection (Manassas, Va.). HepG2 cells were routinely cultured in Eagle's MEM supplemented with 10% fetal bovine serum, 1 mM non-essential amino acids, and 1 mM sodium pyruvate (Invitrogen Life Technologies, Carlsbad, Calif.). Cells were routinely passaged by trypsinization and dilution when they reached approximately 90% confluence. Multiwell culture plates are prepared for cell culture by coating with a 1:100 dilution of type 1 rat tail collagen (BD Biosciences, Bedford, Mass.) in phosphate-buffered saline. The collagen-containing plates were incubated at 37° C. for approximately 1 hour, after which the collagen was removed and the wells were washed twice with phosphate-buffered saline. Cells were seeded into 96-well plates (Falcon-Primaria #353872, BD Biosciences, Bedford, Mass.) at a density of approximately 8,000 cells/well for use in oligomeric compound transfection experiments.\nWhen cells reached 65-75% confluency, they were treated with oligonucleotide. Oligonucleotide was mixed with LIPOFECTIN™ Invitrogen Life Technologies, Carlsbad, Calif.) in Opti-MEM™-1 reduced serum medium (Invitrogen Life Technologies, Carlsbad, Calif.) to achieve the desired concentration of oligonucleotide and a LIPOFECTIN™ concentration of 2.5 or 3 μg/mL per 100 nM oligonucleotide. This transfection mixture was incubated at room temperature for approximately 0.5 hours. For cells grown in 96-well plates, wells were washed once with 100 μL OPTI-MEM™-1 and then treated with 130 μL of the transfection mixture. Cells grown in 24-well plates or other standard tissue culture plates are treated similarly, using appropriate volumes of medium and oligonucleotide. Cells are treated and data are obtained in duplicate or triplicate. After approximately 4-7 hours of treatment at 37° C., the medium containing the transfection mixture was replaced with fresh culture medium. Cells were harvested 16-24 hours after oligonucleotide treatment.\nQuantitation of glucose 6-phosphatase translocase mRNA levels was accomplished by real-time quantitative PCR using the ABI PRISM™ 7600, 7700, or 7900 Sequence Detection System (PE-Applied Biosystems, Foster City, Calif.) according to manufacturer's instructions.\nPrior to quantitative PCR analysis, primer-probe sets specific to the target gene being measured were evaluated for their ability to be “multiplexed” with a GAPDH amplification reaction. After isolation the RNA is subjected to sequential reverse transcriptase (RT) reaction and real-time PCR, both of which are performed in the same well. RT and PCR reagents were obtained from Invitrogen Life Technologies (Carlsbad, Calif.). […] The RT reaction was carried out by incubation for 30 minutes at 48° C. Following a 10 minute incubation at 95° C. to activate the PLATINUM® Taq, 40 cycles of a two-step PCR protocol were carried out: 95° C. for 15 seconds (denaturation) followed by 60° C. for 1.5 minutes (annealing/extension).\nGene target quantities obtained by RT, real-time PCR were normalized using either the expression level of GAPDH, a gene whose expression is constant, or by quantifying total RNA using RiboGreen™ (Molecular Probes, Inc. Eugene, Oreg.). GAPDH expression was quantified by RT, real-time PCR, by being run simultaneously with the target, multiplexing, or separately. Total RNA was quantified using RiboGreen™ RNA quantification reagent (Molecular Probes, Inc. Eugene, Oreg.).\nA series of oligomeric compounds was designed to target different regions of human glucose-6-phosphatase translocase, using published sequences cited in Table 1. All compounds in Table 4 are chimeric oligonucleotides (“gapmers”) 20 nucleotides in length, composed of a central “gap” region consisting of 10 2′-deoxynucleotides, which is flanked on both sides (5′ and 3′) by five-nucleotide “wings”. The wings are composed of 2′-O-(2-methoxyethyl) nucleotides, also known as 2′-MOE nucleotides. […]", "units": {"% Inhib": "%"}, "values": [{"sequence": "GAACTGGCCCCAGTCAGTAC (eG*eA*eA*e[5mC]*eT*dG*dG*d[5mC]*d[5mC]*d[5mC]*d[5mC]*dA*dG*dT*d[5mC]*eA*eG*eT*eA*e[5mC]; antisense) [ISIS 359528]", "% Inhib": 45}, {"sequence": "GAAGGAGACAACCACACACA (eG*eA*eA*eG*eG*dA*dG*dA*d[5mC]*dA*dA*d[5mC]*d[5mC]*dA*d[5mC]*eA*e[5mC]*eA*e[5mC]*eA; antisense) [ISIS 359520]", "% Inhib": 42}, {"sequence": "GAGAAACCAAATACAGCTCC (eG*eA*eG*eA*eA*dA*d[5mC]*d[5mC]*dA*dA*dA*dT*dA*d[5mC]*dA*eG*e[5mC]*eT*e[5mC]*e[5mC]; antisense) [ISIS 359540]", "% Inhib": 92}, {"sequence": "GCCACCCAGAAGGCTGTGCT (eG*e[5mC]*e[5mC]*eA*e[5mC]*d[5mC]*d[5mC]*dA*dG*dA*dA*dG*dG*d[5mC]*dT*eG*eT*eG*e[5mC]*eT; antisense) [ISIS 359545]", "% Inhib": 65}, {"sequence": "GTCACTGGTCACTGTTACCC (eG*eT*e[5mC]*eA*e[5mC]*dT*dG*dG*dT*d[5mC]*dA*d[5mC]*dT*dG*dT*eT*eA*e[5mC]*e[5mC]*e[5mC]; antisense) [ISIS 359534]", "% Inhib": 75}, {"sequence": "GTGCTCTCCTCCTTCAAGGA (eG*eT*eG*e[5mC]*eT*d[5mC]*dT*d[5mC]*d[5mC]*dT*d[5mC]*d[5mC]*dT*dT*d[5mC]*eA*eA*eG*eG*eA; antisense) [ISIS 359527]", "% Inhib": 45}, {"sequence": "GTGCTGCGCCAGCTGTAGCT (eG*eT*eG*e[5mC]*eT*dG*d[5mC]*dG*d[5mC]*d[5mC]*dA*dG*d[5mC]*dT*dG*eT*eA*eG*e[5mC]*eT; antisense) [ISIS 359517]", "% Inhib": 25}, {"sequence": "TACCAGGATCCAGAGCTTGG (eT*eA*e[5mC]*e[5mC]*eA*dG*dG*dA*dT*d[5mC]*d[5mC]*dA*dG*dA*dG*e[5mC]*eT*eT*eG*eG; antisense) [ISIS 359535]", "% Inhib": 58}, {"sequence": "TCACTGTTACCCGGAAGAGG (eT*e[5mC]*eA*e[5mC]*eT*dG*dT*dT*dA*d[5mC]*d[5mC]*d[5mC]*dG*dG*dA*eA*eG*eA*eG*eG; antisense) [ISIS 359532]", "% Inhib": 48}, {"sequence": "TCCAGCCAGGTTCATGCTGG (eT*e[5mC]*e[5mC]*eA*eG*d[5mC]*d[5mC]*dA*dG*dG*dT*dT*d[5mC]*dA*dT*eG*e[5mC]*eT*eG*eG; antisense) [ISIS 359514]", "% Inhib": 37}, {"sequence": "TCCCAATACCAGGATCCAGA (eT*e[5mC]*e[5mC]*e[5mC]*eA*dA*dT*dA*d[5mC]*d[5mC]*dA*dG*dG*dA*dT*e[5mC]*e[5mC]*eA*eG*eA; antisense) [ISIS 359536]", "% Inhib": 55}, {"sequence": "TCCTTCAAGGAGCCCTTCTT (eT*e[5mC]*e[5mC]*eT*eT*d[5mC]*dA*dA*dG*dG*dA*dG*d[5mC]*d[5mC]*d[5mC]*eT*eT*e[5mC]*eT*eT; antisense) [ISIS 359525]", "% Inhib": 56}, {"sequence": "TCCTTTCTCCTGGATAAGGA (eT*e[5mC]*e[5mC]*eT*eT*dT*d[5mC]*dT*d[5mC]*d[5mC]*dT*dG*dG*dA*dT*eA*eA*eG*eG*eA; antisense) [ISIS 359530]", "% Inhib": 59}, {"sequence": "TCTCCTCCTTCAAGGAGCCC (eT*e[5mC]*eT*e[5mC]*e[5mC]*dT*d[5mC]*d[5mC]*dT*dT*d[5mC]*dA*dA*dG*dG*eA*eG*e[5mC]*e[5mC]*e[5mC]; antisense) [ISIS 359526]", "% Inhib": 54}, {"sequence": "TCTCCTGGATAAGGAAGAAC (eT*e[5mC]*eT*e[5mC]*e[5mC]*dT*dG*dG*dA*dT*dA*dA*dG*dG*dA*eA*eG*eA*eA*e[5mC]; antisense) [ISIS 359529]", "% Inhib": 15}, {"sequence": "TGTAGTGCTTGGCAATGGTG (eT*eG*eT*eA*eG*dT*dG*d[5mC]*dT*dT*dG*dG*d[5mC]*dA*dA*eT*eG*eG*eT*eG; antisense) [ISIS 359544]", "% Inhib": 7}, {"sequence": "TTACCCGGAAGAGGTACATG (eT*eT*eA*e[5mC]*e[5mC]*d[5mC]*dG*dG*dA*dA*dG*dA*dG*dG*dT*eA*e[5mC]*eA*eT*eG; antisense) [ISIS 359531]", "% Inhib": 62}, {"sequence": "TTCAGCCACCCAGAAGGCTG (eT*eT*e[5mC]*eA*eG*d[5mC]*d[5mC]*dA*d[5mC]*d[5mC]*d[5mC]*dA*dG*dA*dA*eG*eG*e[5mC]*eT*eG; antisense) [ISIS 359546]", "% Inhib": 39}]}]}
